# Non-standard residues stand in square brackets, D forms with d. Residues, ends and D or L forms follow the SMILES beside them. Gly(N-2-aminoethyl) = NCCNCC(=O)O; Nspe = C[C@H](NCC(=O)O)c1ccccc1; Nphe = O=C(O)CNCc1ccccc1; Nlys = NCCCCNCC(=O)O
# Tests used:
# [1] = tested on: E. coli; assay type: cell-based; conditions: 16 h
# Method: (§1) Bacterial cultures were prepared by streaking the bacterial strain from a 4°C- or frozen stock culture to single colonies onto agar plates (containing the appropriate antibiotic for strains carrying antibiotic resistance plasmids) with an inoculation loop, followed by overnight incubation at 37 °C.
# (§2) Primary overnight (o/n) cultures were prepared by inoculating a single colony from a streak plate into 5 mL of LB broth in a screw-capped culture tube, that was placed on a tube rotator at 37 °C (or 30 °C for sensitive strains) for overnight incubation. Before the usage of stock cultures the strains genotype were checked. Primary stocks were stored at 4°C for up to 6 weeks and always replaced from fresh colonies.
# (§3) Fresh cultures used for experiments contained 0.1-0.5 mL o/n culture diluted into 8 mL of fresh medium in a standard test tube. Placed in a shaking water bath or on a tube rotator the bacteria were grown at the required temperature to the required cell density. Frozen stock cultures used for long term storage that can remain viable for 10 years were prepared by mixing 2.5 mL fresh o/n culture with 1.5 mL sterile 80% glycerol in a 5 mL sterile blood tube and stored at -20 °C.
# (§4) MIC values were attained according to the previously described protocol4 and were conducted in 96-well plates (Costar, Fisher Scientific). Using the pre-prepared cultures, an innoculum density of 0.07 at 650 nm was set by comparing the absorbance with 0.5 MacFarland standard (240 μM BaCl2 in 0.18 M H2SO4). The innoculum was then diluted down ten-fold with Iso-sensitest broth (Oxoid, ThermoScientific) before use. Peptoids were initially dissolved in DMSO (5 mM) and then diluted further with Iso-sensitest broth to achieve a concentration range of 4 – 200 µM using 1 : 2 serial dilutions. 50 μl of innoculum and 50 μL of peptoid solution were added to each test well (final concentration range of 2 – 100 µM). Positive control containing only innoculum and Iso-sensitest broth; negative control containing inoculum and serial dilutions of ampicillin (from 250 microgram/mL to 2 microgram per mL); DMSO control containing innoculum and serial dilutions of DMSO; and Iso-sensitest broth were used as a sterile control. […] Quantitative data was attained from absorbance values using a microplate reader.
# [2] = tested on: S. aureus; assay type: cell-based; conditions: 16 h
# Method: as §1, §2, §3, §4
# [3] = Average hydrophobicity by analytical reverse-phase HPLC retention; assay type: physicochemical; conditions: for RP-HPLC Retention (% MeCN): Supplement table 4 (chemical and physical data for peptoid library), % MeCN at elution in RP-HPLC; for RP-HPLC Retention: Table S3, representative analytical RP-HPLC traces, SB-Analytical ODH-S column 100 x 1.6 mm, 3.5 µm, 0-100% solvent B over 30 min at 220 nm, A = 95% H2O, 0.05% TFA, B = 95% MeCN, 0.03% TFA
# Method: (§5) To examine the average hydrophobicity of the peptoids, the retention time for from reverse‐phase HPLC was determined on a C18 column using acetonitrile and water, with 0.1% TFA (see Figure 3A). To find log D values, partitioning experiments were carried out, as illustrated by Figure 2. A peptoid solution (between 10 and 100 µM) in PBS was added to an equal volume of octanol and the system allowed to equilibrate under gentle agitation for ∼150 h (as 48 h was not found to be sufficient for the system to reach equilibrium). At this point it is assumed that the peptoid has partitioned between these two phases, such as to minimise its free energy.
# Preparative RP‐HPLC was performed with a semi‐preparative Perkin Elmer Series 200 lc pump fitted with a 785A UV/Vis detector using a SB‐Analytical ODH‐S optimal column (250 mm × 10 mm, 5 µm); flow rate 2 mL min^−1; λ = 250 nm, typical linear gradient elution 0–50% of solvent B over 60 min (A = 0.1% TFA in 95% H2O and 5% MeCN, B = 0.1% TFA in 5% H2O and 95% MeCN). Analytical RP‐HPLC was performed with a Perkin Elmer Series 200 LC pump fitted with a Series 200 UV/Vis detector using a SB‐Analytical ODH‐S optimal column (100 mm × 1.6 mm, 3.5 µm); flow rate 1 mL min^−1; λ = 220 nm, linear gradient elution 0–100% of solvent B over 30 min (A = 0.05% TFA, 95% H2O, 5% MeCN, B = 0.03% TFA, 5% H2O, 95% MeCN).
# Preparative RP-HPLC was performed with a semi-preparative Perkin Elmer Series 200 lc pump fitted with a 785A UV/Vis detector using a SB-Analytical ODH-S optimal column (250 × 10 mm, 5 µm); flow rate 2 ml min^−1; λ = 250 nm, typical linear gradient elution 0-50% of solvent B over 60 min (A = 0.1% TFA in 95% H2O and 5% MeCN, B = 0.1% TFA in 5% H2O and 95% MeCN). Analytical RP-HPLC was performed with a Perkin Elmer Series 200 LC pump fitted with a Series 200 UV/Vis detector using a SB-Analytical ODH-S optimal column (100 × 1.6 mm, 3.5 µm); flow rate 1 ml min^−1; λ = 220 nm, linear gradient elution 0-100% of solvent B over 30 min (A = 0.05% TFA, 95% H2O, 5% MeCN, B = 0.03% TFA, 5% H2O, 95% MeCN).
# Table S3. Data from analytical RP-HPLC for representative compounds of this peptoid library. Analytical HPLC gradient: 0 – 100% solvent B over 30 min at 220 nm (where solvent A = 95% H2O, 5% MeCN, 0.05 % TFA; solvent B = 95% MeCN, 5% H2O, 0.03% TFA).
# [4] = log D by partitioning experiment in octanol and PBS; assay type: physicochemical; conditions: pH 7.4
# Method: as §5
# A combination of UV spectrometry and dynamic light scattering were used to determine that no aggregation was taking place in either phase (see Supporting Information). The peptoid concentrations of both phases were then determined using UV–Vis spectroscopy and the logarithm of the ratio of […] (log D) was calculated (Figure 3B). […]
# Partition experiments were carried out by putting 450 µL of octanol in contact with 450 µL of PBS, which contained between […] of peptoid. Each peptoid was measured in triplicate. […] The concentration of peptoid remaining in the PBS and the octanol was measured individually using the phenylalanine peak as before. […]
RP-HPLC Retention (% MeCN) [3] [% MeCN],SMILES,also measured
41,C[C@@H](c1ccccc1)N(CC(N)=O)C(=O)CN(C(=O)CN(CCN)C(=O)CN(C(=O)CN(C(=O)CN(CCN)C(=O)CN(C(=O)CN(C(=O)CN(CCN)C(=O)CN(C(=O)CN(C(=O)CNCCN)[C@@H](C)c1ccccc1)[C@@H](C)c1ccccc1)[C@@H](C)c1ccccc1)[C@@H](C)c1ccccc1)[C@@H](C)c1ccccc1)[C@@H](C)c1ccccc1)[C@@H](C)c1ccccc1 [Peptoid 10] (H-[Gly(N-2-aminoethyl)][Nspe][Nspe][Gly(N-2-aminoethyl)][Nspe][Nspe][Gly(N-2-aminoethyl)][Nspe][Nspe][Gly(N-2-aminoethyl)][Nspe][Nspe]-NH2),"MIC E. coli [1]: >100 µM; MIC S. aureus [2]: 2 µM; HPLC RT ([3]; Table 2 / main text, chromatographic, RP-HPLC C18 retention time as measure of average hydrophobicity, gradient 0-100% solvent B over 30 min, 220 nm, 1 mL/min, A = 0.05% TFA, 95% H2O, 5% MeCN, B = 0.03% TFA, 5% H2O, 95% MeCN, around pH 2.2): 16.7 min"
33,C[C@@H](c1ccccc1)N(CC(N)=O)C(=O)CN(C(=O)CN(CCN)C(=O)CN(C(=O)CN(C(=O)CNCCN)[C@@H](C)c1ccccc1)[C@@H](C)c1ccccc1)[C@@H](C)c1ccccc1 [Peptoid 12],
39,C[C@@H](c1ccccc1)N(CC(N)=O)C(=O)CN(C(=O)CN(CCN)C(=O)CN(C(=O)CN(C(=O)CN(CCN)C(=O)CN(C(=O)CN(C(=O)CNCCN)[C@@H](C)c1ccccc1)[C@@H](C)c1ccccc1)[C@@H](C)c1ccccc1)[C@@H](C)c1ccccc1)[C@@H](C)c1ccccc1 [Peptoid 11] (H-[Gly(N-2-aminoethyl)][Nspe][Nspe][Gly(N-2-aminoethyl)][Nspe][Nspe][Gly(N-2-aminoethyl)][Nspe][Nspe]-NH2),log D [4]: negative
34,NCCNCC(=O)N(CC(=O)N(CC(=O)N(CCN)CC(=O)N(CC(=O)N(CC(=O)N(CCN)CC(=O)N(CC(=O)N(CC(N)=O)Cc1ccccc1)Cc1ccccc1)Cc1ccccc1)Cc1ccccc1)Cc1ccccc1)Cc1ccccc1 [Peptoid 8] (H-[Gly(N-2-aminoethyl)][Nphe][Nphe][Gly(N-2-aminoethyl)][Nphe][Nphe][Gly(N-2-aminoethyl)][Nphe][Nphe]-NH2),
30,NCCNCC(=O)N(CC(=O)N(CC(=O)N(CCN)CC(=O)N(CC(=O)N(CC(N)=O)Cc1ccccc1)Cc1ccccc1)Cc1ccccc1)Cc1ccccc1 [Peptoid 9] (H-[Gly(N-2-aminoethyl)][Nphe][Nphe][Gly(N-2-aminoethyl)][Nphe][Nphe]-NH2),
37,NCCNCC(=O)N(CC(=O)N(CC(=O)N(CCN)CC(=O)N(CC(=O)N(CC(=O)N(CCN)CC(=O)N(CC(=O)N(CC(=O)N(CCN)CC(=O)N(CC(=O)N(CC(N)=O)Cc1ccccc1)Cc1ccccc1)Cc1ccccc1)Cc1ccccc1)Cc1ccccc1)Cc1ccccc1)Cc1ccccc1)Cc1ccccc1 [Peptoid 7] (H-[Gly(N-2-aminoethyl)][Nphe][Nphe][Gly(N-2-aminoethyl)][Nphe][Nphe][Gly(N-2-aminoethyl)][Nphe][Nphe][Gly(N-2-aminoethyl)][Nphe][Nphe]-NH2),"RP-HPLC Retention ([3]; 5% MeCN, 5% H2O): 15.2 min"

# The remaining lines, values behind:
SMILES,RP-HPLC Retention (% MeCN) [3] [% MeCN],also measured
C[C@@H](c1ccccc1)N(CC(N)=O)C(=O)CN(C(=O)CN(CCCCN)C(=O)CN(C(=O)CN(C(=O)CN(CCCCN)C(=O)CN(C(=O)CN(C(=O)CNCCCCN)[C@@H](C)c1ccccc1)[C@@H](C)c1ccccc1)[C@@H](C)c1ccccc1)[C@@H](C)c1ccccc1)[C@@H](C)c1ccccc1 [Peptoid 5] (H-[Nlys][Nspe][Nspe][Nlys][Nspe][Nspe][Nlys][Nspe][Nspe]-NH2),37,"RP-HPLC Retention ([3]; 5% MeCN, 5% H2O): 15.3 min"
NCCCCNCC(=O)N(CC(=O)N(CC(=O)N(CCCCN)CC(=O)N(CC(=O)N(CC(N)=O)Cc1ccccc1)Cc1ccccc1)Cc1ccccc1)Cc1ccccc1 [Peptoid 3] (H-[Nlys][Nphe][Nphe][Nlys][Nphe][Nphe]-NH2),31,
NCCCCNCC(=O)N(CC(=O)N(CC(=O)N(CCCCN)CC(=O)N(CC(=O)N(CC(=O)N(CCCCN)CC(=O)N(CC(=O)N(CC(N)=O)Cc1ccccc1)Cc1ccccc1)Cc1ccccc1)Cc1ccccc1)Cc1ccccc1)Cc1ccccc1 [Peptoid 2],34,
C[C@@H](c1ccccc1)N(CC(N)=O)C(=O)CN(C(=O)CN(CCCCN)C(=O)CN(C(=O)CN(C(=O)CNCCCCN)[C@@H](C)c1ccccc1)[C@@H](C)c1ccccc1)[C@@H](C)c1ccccc1 [Peptoid 6] (H-[Nlys][Nspe][Nspe][Nlys][Nspe][Nspe]-NH2),33,"RP-HPLC Retention ([3]; 5% MeCN, 5% H2O): 14.4 min"
NCCCCNCC(=O)N(CC(=O)N(CC(=O)N(CCCCN)CC(=O)N(CC(=O)N(CC(=O)N(CCCCN)CC(=O)N(CC(=O)N(CC(=O)N(CCCCN)CC(=O)N(CC(=O)N(CC(N)=O)Cc1ccccc1)Cc1ccccc1)Cc1ccccc1)Cc1ccccc1)Cc1ccccc1)Cc1ccccc1)Cc1ccccc1)Cc1ccccc1 [Peptoid 1] (H-[Nlys][Nphe][Nphe][Nlys][Nphe][Nphe][Nlys][Nphe][Nphe][Nlys][Nphe][Nphe]-NH2),37,

# Reference: publication PMC5519928, “Log D versus HPLC derived hydrophobicity: The development of predictive tools to aid in the rational design of bioactive peptoids” (Biopolymers, 2017)
